From patent US6337317B1, “Antimicrobial peptides and methods of use thereof” (priority 2000, dated 2002)
Where a SMILES comes first, the peptide text is derived from it.

Tests used:
[1] = test system: E. coli 0111:B4 LPS induced production of TNF-α in RAW macrophages; experiment: Reduction of LPS-induced TNF-α in RAW 264.7 macrophages (ELISA); assay type: cell-based, murine; details: peptide 20 μg/ml; LPS 100 ng/ml; RAW 264.7; 6 hours
Protocol: The ability of invention peptides to reduce LPS-induced tumor necrosis factor (TNF) production was tested in an in vitro assay. The murine macrophage cell line RAW 264.7 was obtained from American Type Culture Collection (Manassas, Va.) and grown in DMEM medium supplemented with 10% fetal calf serum. The cells were plated at a density of 10^6 cells/well in 24 well plates, incubated overnight, then washed with fresh medium. E. coli 0111 :B4 (100 ng/ml) was added at time 0 to RAW macrophages. Invention peptides […]/m were added at time 0, 30 and 60 minutes and the cells were stimulated for 6 hours. Levels of TNF and interleukin-6 (IL-6) were measured after 6 hours.

[2] = test system: intact cells of E. coli UB1005; experiment: NPN uptake assay, outer membrane permeabilization; assay type: cell-based, Escherichia coli; details: peptide concentration leading to 50% of maximal increase in NPN uptake
Protocol: The outer membrane permeabilization activity of invention peptides was determined by the 1-N-phenylnapthylamine (NPN) uptake assay of Loh et al. ((1984) Antimicor. Agents Chemother. 26:546-551), using intact cells of E. coli UB1005.
The cytoplasmic membrane depolarization activity of the peptides was determined (Wu and Hancock (1999) J. Biol. Chem. 274:29-35) using the membrane potential sensitive dye 3,3-dipropylthiacarbocyanine diSC35 (28) and E. coli DC2. Bacterial cells in mid-log phase were centrifuged, washed in 5 mM HEPES, pH 7.8, and resuspended in the same buffer to an OD600 of 0.05. A stock solution of diSC35 was added to a final concentration of 0.4 μM and quenching was allowed to occur at room temperature for 20-30 min. Then KCl was added to the cell suspension to a final concentration of 100 mM to equilibrate the cytoplasmic and external K^+ concentrations. A 2-mL cell suspension was placed in a 1 cm cuvette and the desired concentration of tested peptide was added. Changes in fluorescence due to the disruption of the membrane potential in the cytoplasmic membrane were continuously recorded using a Perkin-Elmer model 650-10S spectrofluorimeter at an excitation wavelength of 622 nm and an emission wavelength of 670 nm. The concentration of peptide leading to a 50% of maximal increase in NPN uptake was recorded as the P50.
Therefore, an increase in fluorescence in the presence of a peptide indicates the ability of peptide to permeabilize the bacterial outer membrane.

[3] = LPS-induced endotoxemia in galactosamine-sensitized mice; assay type: in vivo; details: 200 μg peptide intraperitoneally, groups of 10 mice, up to 24 h
Protocol: Bacterial endotoxin (LPS) is highly toxic and can cause high mortality in both humans and animals when released during Gram-negative bacterial infection. Galactosamine-treated mice exposed to moderate does of endotoxin typically die from endotoxic shock within 17 hours following exposure. Invention peptides can be tested for their ability to protect mice against endotoxin-induced death (see Examples section). The anti-endotoxic activity of invention peptides also can be tested in an in vitro assay using a macrophage cell line (Gough et al. (1996) Infect. Immun. 64:4922-4927; and Examples section).
The ability of invention peptides to protect against LPS-induced endotoxemia was assessed in vivo. Mice (8-10 weeks old) were injected intraperitoneally with […] D-galactosamine (Dgal) to sensitize them to LPS according to the method of Galanos (Galanos et al. (1979) Proc. Natl. Acad. Sci., USA, 76:5939-5943). Endotoxic shock was induces by intraperitoneal injections of 3 μg/mL E. coli 111 :B4 LPS in phosphate-buffered saline (PBS). Invention peptides (200 μg/100 μl sterile water) were injected intraperitoneally at a separate site within 10 min of LPS injection, and survival was monitored up to 24 h following injection.

CC(C)[C@@H]1NC(=O)[C@H](CCCNC(=N)N)NC(=O)[C@H](Cc2ccccc2)NC(=O)[C@@H](NC(=O)[C@H](Cc2c[nH]c3ccccc23)NC(=O)[C@H](CCCNC(=N)N)NC(=O)[C@@H](N)CCCNC(=N)N)CSSC[C@@H](C(=O)N[C@@H](CCCNC(=N)N)C(N)=O)NC(=O)[C@H](CCCCN)NC(=O)[C@H](CCCNC(=N)N)NC(=O)[C@H](Cc2ccc(O)cc2)NC(=O)[C@@H]2CSSC[C@H](NC1=O)C(=O)N[C@@H](Cc1ccc(O)cc1)C(=O)N[C@@H](CCCNC(=N)N)C(=O)NCC(=O)N[C@@H](Cc1ccccc1)C(=O)N2 [Polyphemusin I] (HELM PEPTIDE1{R.R.W.C.F.R.V.C.Y.R.G.F.C.Y.R.K.C.R.[am]}$PEPTIDE1,PEPTIDE1,4:R3-17:R3|PEPTIDE1,PEPTIDE1,8:R3-13:R3$$$V2.0; N-terminus and C-terminus assumed)
Inhibition of TNF-α (%) [1]: 83 ± 6%
P50 [2]: 2.8 µg/mL
Survival (%), LPS-Endotoxemia [3]: 10%
